Assay results taken from publication PMC3460366, “Synthesis and Antibacterial Evaluation of a New Series of N-Alkyl-2-alkynyl/(E)-alkenyl-4-(1H)-quinolones” (Molecules, 2012).
Values after ≈ are worked out from the molar mass of the structure shown. Values joined by “and” are separate entries in the source; they are usually repeats but may differ in a detail not shown here. Equal values may be shown once.

Experiments:
[1] = system: human diploid embryonic lung cell line MRC-5; assay: XTT cytotoxicity assay on MRC-5 cells; format: cell-based; details: for Metabolic active MRC-5 cells (%): XTT; for toxicity to MRC-5 cell line (in words): at / up to 100 µM
Experimental: In order to assess the cytotoxicity of these novel quinolone derivatives, the effect on the viability of a human lung fibroblast cell line MRC-5, was measured using XTT proliferation assay. […] In addition, the position of the triple bond in the side chain seems to have a significant influence on cytotoxcity which is increased in compounds with a triple bond more distant to the quinolone nucleus. This can be concluded by comparing results of 8l, 8n, 8p, and 8r having similar antimycobacterial activity on M. smegmatis but different cytotoxcity depending on triple bond position.
The cytotoxic activity of the synthetic compounds was determined by means of an XTT Cell Proliferation Kit II (Roche Diagnostics, Mannheim, Germany) using the human diploid embryonic lung cell line MRC-5 [11]. The quinolone derivatives were tested at concentrations of 100, 60, 30 and 10 µM in triplicate and the percentage of viable cells at each concentration was determined by comparing with the control.

M. phlei (ATCC 11758) = assay: Broth dilution MIC against M. phlei; format: cell-based; details: Mycolicibacterium phlei, ATCC11758, 72 h
M. smegmatis mc^2155 = assay: Broth dilution MIC against M. smegmatis mc^2155; format: cell-based; details: Mycolicibacterium smegmatis, 72 h
M. fortuitum (ATCC 6841) = assay: Broth dilution MIC against M. fortuitum; format: cell-based; details: Mycolicibacterium fortuitum, ATCC6841, 72 h
[2] = system: M. smegmatis (ATCC 14468); assay: Microtiter broth dilution MIC against M. smegmatis (ATCC 14468); format: cell-based; details: Mycolicibacterium smegmatis, ATCC14468, 72 h, 37 °C, MTT
EMRSA-15 and -16 = assay: Broth dilution MIC against epidemic MRSA strains; format: cell-based, S. aureus; details: Staphylococcus aureus, range over both strains and the compounds named
S. aureus EMRSA-16 = assay: Broth dilution MIC against EMRSA-16; format: cell-based; details: Staphylococcus aureus, EMRSA16, 18 h
S. aureus EMRSA-15 = assay: Broth dilution MIC against EMRSA-15; format: cell-based; details: Staphylococcus aureus, EMRSA15, 18 h
[3] = system: M. bovis BCG (ATCC 35734); assay: microbe, parasite or virus in culture; format: cell-based; details: Mycobacterium tuberculosis variant bovis BCG, 336 h, read-out: MIC M. bovis BCG
[4] = target: T1, M. tuberculosis MurE ligase (Mycobacterium tuberculosis, UniProt P9WJL3); assay: M. tuberculosis MurE inhibition assay (phosphate colorimetric detection); format: biochemical; details: tested at 1000, 300, 100 and 30 µM; IC50 from plot of percent inhibition vs. concentration; read-out: IC50 Mtb MurE
T1 construct: made in house; host or cells: E. coli BL21(DE3)pLysS
T1 sequence (P9WJL3 whole entry): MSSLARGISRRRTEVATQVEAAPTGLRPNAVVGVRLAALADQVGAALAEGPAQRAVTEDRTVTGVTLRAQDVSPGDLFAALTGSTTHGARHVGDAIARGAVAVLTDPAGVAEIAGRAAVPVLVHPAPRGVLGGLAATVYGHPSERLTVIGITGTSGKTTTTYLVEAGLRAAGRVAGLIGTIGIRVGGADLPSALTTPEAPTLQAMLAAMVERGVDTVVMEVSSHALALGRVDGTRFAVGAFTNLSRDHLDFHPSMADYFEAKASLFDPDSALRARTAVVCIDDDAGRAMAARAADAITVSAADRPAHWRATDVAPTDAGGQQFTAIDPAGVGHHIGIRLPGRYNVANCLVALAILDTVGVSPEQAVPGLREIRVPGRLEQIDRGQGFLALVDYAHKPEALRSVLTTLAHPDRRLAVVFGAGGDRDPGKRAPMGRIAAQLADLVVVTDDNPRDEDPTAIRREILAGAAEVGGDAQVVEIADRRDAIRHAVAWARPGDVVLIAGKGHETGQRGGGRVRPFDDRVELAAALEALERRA

Compound | Metabolic active MRC-5 cells (%) ([1]; 10 µM) | Metabolic active MRC-5 cells (%) ([1]; 30 µM) | Metabolic active MRC-5 cells (%) ([1]; 60 µM) | Metabolic active MRC-5 cells (%) ([1]; 100 µM) | MIC (M. phlei (ATCC 11758)) | MIC (M. smegmatis mc^2155) | MIC (M. fortuitum (ATCC 6841)) | MIC [2] | melting point [°C] | MIC (EMRSA-15 and -16) | MIC (S. aureus EMRSA-16) | MIC (S. aureus EMRSA-15) | MIC [3] | IC50 [4] [µM] | toxicity to MRC-5 cell line (in words) [1]
CCCCCCCCC#Cc1cc(=O)c2ccccc2n1CC [Compound 8g, 1-Ethyl-2-(1'-decynyl)-4(1H)-quinolone] | 101 ± 0.97 | 98.7 ± 2.97 | 56.5 ± 2.03 | 12.1 ± 4.79 | 4 µg/mL and 12.9 µM | 4 µg/mL and 12.9 µM | 8 µg/mL and 25.9 µM | 2 µg/mL and 6.5 µM | – | – | – | – | – | – | –
CCCCCCCCC#CCCc1cc(=O)c2ccccc2n1CC [Compound 8k, 1-Ethyl-2-(3'-dodecynyl)-4(1H)-quinolone] | 97.6 ± 1.69 | 95.1 ± 1.04 | 94.7 ± 0.92 | 74.8 ± 1.99 | – | – | – | 4 µg/mL and 11.9 µM | 66 to 68 | – | – | – | – | – | –
CCCCCCCCC#CCCc1cc(=O)c2ccccc2n1CCC [Compound 8l, 1-(n-Propyl)-2-(3'-dodecynyl)-4(1H)-quinolone] | 100 ± 0.31 | 99.1 ± 2.32 | 69.1 ± 8.04 | 9.0 ± 6.85 | 4 µg/mL and 11.4 µM | – | 2 µg/mL and 5.7 µM | 1 µg/mL and 2.8 µM | – | 2 µg/mL to 8 µg/mL and 5.5 µM to 22.8 µM | 8 µg/mL and 22.8 µM | 2 µg/mL and 5.7 µM | 25 µg/mL and 71.2 µM | 263 | –
CCCCCCCCC#CCCc1cc(=O)c2ccccc2n1CCCC [Compound 8m, 1-(n-Butyl)-2-(3'-dodecynyl)-4(1H)-quinolone] | 94.9 ± 3.18 | 89.7 ± 2.46 | 67.5 ± 3.19 | 0.4 ± 0.02 | 4 µg/mL and 10.9 µM | 2 µg/mL and 5.5 µM | 2 µg/mL and 5.5 µM | 2 µg/mL and 5.5 µM | – | 2 µg/mL to 8 µg/mL and 5.5 µM to 22.8 µM | 4 µg/mL and 10.9 µM | 2 µg/mL and 5.5 µM | 25 µg/mL and 68.5 µM | 235 | –
CCCCCCCCCCC#Cc1cc(=O)c2ccccc2n1C [Compound 8n, 1-Methyl-2-(1'-dodecynyl)-4(1H)-quinolone] | 101 ± 0.85 | 100 ± 0.72 | 100 ± 0.81 | 100 ± 0.82 | 1 µg/mL and 3.1 µM | 1 µg/mL and 3.1 µM | 0.5 µg/mL and 1.5 µM | 0.5 µg/mL (≈ 1.55 µM) | – | 2 µg/mL to 8 µg/mL and 5.5 µM to 22.8 µM | 4 µg/mL and 12.4 µM | 2 µg/mL and 6.2 µM | 25 µg/mL and 77.4 µM | 251 | devoid of toxicity
CCCCCCCCCCC#CCCc1cc(=O)c2ccccc2n1C [Compound 8o, 1-Methyl-2-(3'-tetradecynyl)-4(1H)-quinolone] | 100 ± 0.73 | 97.9 ± 0.88 | 95.8 ± 2.54 | 90.7 ± 3.48 | 2 µg/mL and 5.7 µM | 1 µg/mL and 2.8 µM | 2 µg/mL and 5.7 µM | 2 µg/mL and 5.7 µM | 43 to 45 | – | 8 µg/mL and 22.8 µM | 8 µg/mL and 22.8 µM | 25 µg/mL and 71.2 µM | 774 | –
CCCCCCCCCCC#CCCc1cc(=O)c2ccccc2n1CC [Compound 8p, 1-Ethyl-2-(3'-tetradecynyl)-4(1H)-quinolone] | 97.3 ± 1.37 | 95.4 ± 0.76 | 93.3 ± 1.13 | 8.75 ± 9.35 | 2 µg/mL and 5.5 µM | 1 µg/mL and 2.7 µM | 4 µg/mL and 10.9 µM | 1 µg/mL and 2.7 µM | 74 to 76 | – | – | – | – | – | –
CCCCCCCCCCC#CCCc1cc(=O)c2ccccc2n1CCC [Compound 8q, 1-(n-Propyl)-2-(3'-tetradecynyl)-4(1H)-quinolone] | 92.7 ± 4.62 | 67.9 ± 2.65 | 19.8 ± 9.85 | 0.2 ± 0.09 | 2 µg/mL and 5.3 µM | 1 µg/mL and 2.6 µM | 2 µg/mL and 5.3 µM | 1 µg/mL and 2.6 µM | – | – | 128 µg/mL and 338 µM | 2 µg/mL and 5.3 µM | 25 µg/mL and 66 µM | 200 | –
CCCCCCCCCCCCC#Cc1cc(=O)c2ccccc2n1C [Compound 8r, 1-Methyl-2-(1′-tetradecynyl)-4(1H)-quinolone] | 99.7 ± 2.03 | 98.1 ± 1.65 | 97.1 ± 1.69 | 95.7 ± 1.14 | 2 µg/mL and 5.7 µM | 1 µg/mL and 2.8 µM | 0.5 µg/mL and 1.5 µM | 0.5 µg/mL (≈ 1.42 µM) | 41 to 43 | – | 128 µg/mL and 365 µM | 16 µg/mL and 45.6 µM | 25 µg/mL and 71.2 µM | 631 | devoid of toxicity
CCCCCCCCCCCCC#CCCc1cc(=O)c2ccccc2n1C [Compound 8s, 1-Methyl-2-(3′-hexadecynyl)-4(1H)-quinolone] | 93.9 ± 0.61 | 92.2 ± 0.70 | 58.9 ± 3.65 | 41.5 ± 9.49 | – | – | – | 128 µg/mL and 338 µM | 58 to 61 | – | – | – | – | – | –
O=c1cc(/C=C/CCCCCCCCCCBr)n(C2CC2)c2ccccc12 [Compound 18a, 1-Cyclopropyl-2-[(E)-12-bromodec-1'-enyl]-4(1H)-quinolone] | – | – | – | – | – | – | – | 8 µg/mL and 18.6 µM | 85 to 87 | – | – | – | – | – | –
O=c1cc(/C=C/CCCCCCCCCCCBr)n(C2CC2)c2ccccc12 [Compound 18b, 1-Cyclopropyl-2-[(E)-13-bromotridec-1'-enyl)-4(1H)-quinolone] | – | – | – | – | – | – | – | 8 µg/mL and 18.1 µM | 61 to 63 | – | – | – | – | – | –
Cn1c(/C=C/CCCCCCCCCCBr)cc(=O)c2ccccc21 [Compound 19a, 1-Methyl-2-[(E)-12-bromodec-1'-enyl]-4(1H)-quinolone] | – | – | – | – | 1 µg/mL and 2.5 µM | 1 µg/mL and 2.5 µM | 1 µg/mL and 2.5 µM | 0.5 µg/mL (≈ 1.24 µM) | – | – | – | – | – | – | –
Cn1c(/C=C/CCCCCCCCCCCBr)cc(=O)c2ccccc21 [Compound 19b, 1-Methyl-2-[(E)-13-bromotridec-1'-enyl)-4(1H)-quinolone] | – | – | – | – | 1 µg/mL and 2.4 µM | 1 µg/mL and 2.4 µM | 1 µg/mL and 2.4 µM | 0.5 µg/mL (≈ 1.19 µM) | – | – | – | – | – | – | –
CCCCCCCCCCC/C=C/c1cc(=O)c2ccccc2n1C1CC1 [Compound 22a, 1-Cyclopropyl-2-[(E)-1′-tridecenyl]-4(1H)-quinolone] | – | – | – | – | – | – | – | 128 µg/mL and 351 µM | 86 to 88 | – | – | – | – | – | –
CCCCCCCCCCCC/C=C/c1cc(=O)c2ccccc2n1C1CC1 [Compound 22b, 1-Cyclopropyl-2-[(E)-1′-tetradecenyl]-4(1H)-quinolone] | – | – | – | – | – | – | – | 128 µg/mL and 338 µM | 96 to 98 | – | – | – | – | – | –
CC[C@@H](CO)NCCN[C@@H](CC)CO [Ethambutol, reference compound] | – | – | – | – | 4 µg/mL and 19.6 µM | 4 µg/mL and 19.6 µM | 8 µg/mL and 39.2 µM | 2 µg/mL and 9.8 µM | – | – | – | – | – | – | –
NNC(=O)c1ccncc1 [Isoniazid, reference compound] | – | – | – | – | 8 µg/mL and 58.3 µM | 4 µg/mL and 29.2 µM | 2 µg/mL and 14.6 µM | 4 µg/mL and 29.2 µM | – | – | – | – | 0.1 µg/mL and 0.7 µM | – | –
CCn1cc(C(=O)O)c(=O)c2cc(F)c(N3CCNCC3)cc21 [Norfloxacin, reference compound] | – | – | – | – | – | – | – | – | – | – | 128 µg/mL and 401 µM | 0.5 µg/mL and 1.6 µM | – | – | –
CN(C)[C@@H]1C(O)=C(C(N)=O)C(=O)[C@@]2(O)C(O)=C3C(=O)c4c(O)cccc4[C@@](C)(O)[C@H]3C[C@@H]12 [Tetracycline, reference compound] | – | – | – | – | – | – | – | – | – | – | 0.25 µg/mL and 0.6 µM | 0.25 µg/mL and 0.6 µM | – | – | –
